# Reference: ChEMBL document CHEMBL1201862, “PubChem BioAssay data set” (2004)
#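 Exposure lasted 48 hours, with cells grown in 96-well plates and compounds tested at five concentrations. The concentration for 50% growth inhibition is given as GI50.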 Calls of active or inactive are those of the source. No stated cut-off is given here; in the data, active = GI50 up to about 1.1 µM and inactive = higher.
# Experiments:
# Assay in all cases: NCI-60 cell line screen, 48 h
# [1] = system: SNB-19
# [2] = system: COLO 205
# [3] = system: NCI-H226
# [4] = system: SF-295
# [5] = system: UACC-257
# [6] = system: NCI-H460
# [7] = system: SK-MEL-28
# [8] = system: OVCAR-3
# [9] = system: CCRF-CEM
# [10] = system: OVCAR-8
# [11] = system: IGROV-1
# [12] = system: SN12C
# [13] = system: RXF 393
# [14] = system: SK-MEL-2
# [15] = system: M14
# [16] = system: DMS-273
# [17] = system: NCI-H522
# [18] = system: XF498
# [19] = system: SK-OV-3
# [20] = system: Malme-3M
# [21] = system: HT-29
# [22] = system: HOP-18
# [23] = system: KM12
# [24] = system: U-251
# [25] = system: M19-MEL
# [26] = system: DMS-114
# [27] = system: UO-31
# [28] = system: HCT-15
# [29] = system: TK-10
# [30] = system: HOP-62
# [31] = system: HL-60
# [32] = system: SW-620
# [33] = system: ACHN
# [34] = system: SF-539
# [35] = system: MOLT-4
# [36] = system: LOX IMVI
# [37] = system: UACC-62
# [38] = system: SK-MEL-5
# [39] = system: A549
# [40] = system: RPMI-8226
# [41] = system: 786-0
# [42] = system: SNB-75
# [43] = system: NCI-H23
# [44] = system: K562
# [45] = system: EKVX
# [46] = system: HCT-116
compound,measurement,setting,value
CC(=O)NS(=O)(=O)c1ccc(NC(=O)COC(=O)c2cccc3c(=O)c4ccccc4[nH]c23)cc1,GI50,[1],> 100 µM (inactive)
same,GI50,[2],> 100 µM (inactive)
same,GI50,[3],> 100 µM (inactive)
same,GI50,[4],> 100 µM (inactive)
same,GI50,[5],> 100 µM (inactive)
same,GI50,[6],> 100 µM (inactive)
same,GI50,[7],> 100 µM (inactive)
same,GI50,[8],92.5 µM (inactive)
same,GI50,[9],> 100 µM (inactive)
same,GI50,[10],> 100 µM (inactive)
same,GI50,[11],> 100 µM (inactive)
same,GI50,[12],> 100 µM (inactive)
same,GI50,[13],> 100 µM (inactive)
same,GI50,[14],> 100 µM (inactive)
same,GI50,[15],> 100 µM (inactive)
same,GI50,[16],> 100 µM (inactive)
same,GI50,[17],> 100 µM (inactive)
same,GI50,[18],> 100 µM (inactive)
same,GI50,[19],> 100 µM (inactive)
same,GI50,[20],> 100 µM (inactive)
same,GI50,[21],> 100 µM (inactive)
same,GI50,[22],> 100 µM (inactive)
same,GI50,[23],> 100 µM (inactive)
same,GI50,[24],> 100 µM (inactive)
same,GI50,[25],> 100 µM (inactive)
same,GI50,[26],> 100 µM (inactive)
same,GI50,[27],> 100 µM (inactive)
same,GI50,[28],> 100 µM
same,GI50,[29],> 100 µM (inactive)
same,GI50,[30],> 100 µM (inactive)
same,GI50,[31],> 100 µM (inactive)
same,GI50,[32],> 100 µM (inactive)
same,GI50,[33],> 100 µM (inactive)
same,GI50,[34],> 100 µM (inactive)
same,GI50,[35],> 100 µM (inactive)
same,GI50,[36],> 100 µM (inactive)
same,GI50,[37],> 100 µM (inactive)
same,GI50,[38],> 100 µM (inactive)
same,GI50,[39],> 100 µM (inactive)
same,GI50,[40],> 100 µM (inactive)
same,GI50,[41],> 100 µM (inactive)
same,GI50,[42],> 100 µM (inactive)
same,GI50,[43],> 100 µM (inactive)
same,GI50,[44],> 100 µM (inactive)
same,GI50,[45],> 100 µM (inactive)
same,GI50,[46],> 100 µM (inactive)
